Consider 14 compounds from US20230117470A1, “SUBSTITUTED PYRAZOLE COMPOUNDS AS TOLL RECEPTOR INHIBITORS” (BRISTOL-MYERS SQUIBB COMPANY, priority 2019, published 2023).

What all share (assay type): cell-based
For test [1], the target named is T1, human TLR8 (Homo sapiens, UniProt Q9NR97).
T1 construct: host or cells: HEK-Blue cells
T1 sequence (Q9NR97 27-1041): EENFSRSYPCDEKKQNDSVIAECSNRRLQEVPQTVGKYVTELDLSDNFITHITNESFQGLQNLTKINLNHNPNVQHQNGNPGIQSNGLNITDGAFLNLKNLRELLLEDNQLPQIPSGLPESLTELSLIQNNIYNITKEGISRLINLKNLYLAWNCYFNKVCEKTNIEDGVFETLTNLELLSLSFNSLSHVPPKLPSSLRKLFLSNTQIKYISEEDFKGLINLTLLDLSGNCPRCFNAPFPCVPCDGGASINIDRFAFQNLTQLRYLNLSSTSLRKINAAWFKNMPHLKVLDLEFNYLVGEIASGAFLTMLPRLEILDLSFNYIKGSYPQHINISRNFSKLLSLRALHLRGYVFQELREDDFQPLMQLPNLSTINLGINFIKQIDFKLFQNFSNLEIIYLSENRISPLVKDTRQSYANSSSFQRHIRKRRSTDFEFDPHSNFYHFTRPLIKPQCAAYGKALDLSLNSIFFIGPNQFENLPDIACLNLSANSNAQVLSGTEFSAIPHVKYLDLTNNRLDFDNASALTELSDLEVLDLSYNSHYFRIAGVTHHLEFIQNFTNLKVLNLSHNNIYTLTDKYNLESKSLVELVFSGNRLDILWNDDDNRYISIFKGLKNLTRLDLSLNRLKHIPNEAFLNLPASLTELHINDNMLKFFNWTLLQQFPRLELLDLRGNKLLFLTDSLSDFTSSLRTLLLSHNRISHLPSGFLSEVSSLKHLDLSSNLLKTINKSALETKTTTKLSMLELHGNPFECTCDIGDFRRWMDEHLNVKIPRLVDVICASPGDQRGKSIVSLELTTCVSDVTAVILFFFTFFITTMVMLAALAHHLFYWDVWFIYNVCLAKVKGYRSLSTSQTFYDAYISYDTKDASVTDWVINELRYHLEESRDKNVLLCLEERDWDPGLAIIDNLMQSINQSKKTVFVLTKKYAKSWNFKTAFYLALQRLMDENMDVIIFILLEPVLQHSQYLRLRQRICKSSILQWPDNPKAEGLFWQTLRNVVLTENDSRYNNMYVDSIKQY
Put plainly: TLR8 inhibition reporter assay (HEK-Blue cells, SEAP reporter, R848 stimulation). The following applies: HEK-Blue cells overexpressing human TLR8, SEAP reporter, R848 15.9 μM. The method in brief:
(§1)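 Cells were pre-treated 30 min at room temperature with compound (final 0.05 nM–50 μM), then stimulated with gardiquimod 7.5 μM (TLR7), R848 15.9 μM (TLR8) or ODN2006 5 nM (TLR9). SEAP was read after 22 h at 37° C; percent inhibition scaled between agonist+DMSO and known-inhibitor wells.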

Test [2] has as its target T2, human TLR7 (Homo sapiens, UniProt Q9NYK1).
T2 construct: host or cells: HEK-Blue cells
T2 sequence (Q9NYK1 27-1049): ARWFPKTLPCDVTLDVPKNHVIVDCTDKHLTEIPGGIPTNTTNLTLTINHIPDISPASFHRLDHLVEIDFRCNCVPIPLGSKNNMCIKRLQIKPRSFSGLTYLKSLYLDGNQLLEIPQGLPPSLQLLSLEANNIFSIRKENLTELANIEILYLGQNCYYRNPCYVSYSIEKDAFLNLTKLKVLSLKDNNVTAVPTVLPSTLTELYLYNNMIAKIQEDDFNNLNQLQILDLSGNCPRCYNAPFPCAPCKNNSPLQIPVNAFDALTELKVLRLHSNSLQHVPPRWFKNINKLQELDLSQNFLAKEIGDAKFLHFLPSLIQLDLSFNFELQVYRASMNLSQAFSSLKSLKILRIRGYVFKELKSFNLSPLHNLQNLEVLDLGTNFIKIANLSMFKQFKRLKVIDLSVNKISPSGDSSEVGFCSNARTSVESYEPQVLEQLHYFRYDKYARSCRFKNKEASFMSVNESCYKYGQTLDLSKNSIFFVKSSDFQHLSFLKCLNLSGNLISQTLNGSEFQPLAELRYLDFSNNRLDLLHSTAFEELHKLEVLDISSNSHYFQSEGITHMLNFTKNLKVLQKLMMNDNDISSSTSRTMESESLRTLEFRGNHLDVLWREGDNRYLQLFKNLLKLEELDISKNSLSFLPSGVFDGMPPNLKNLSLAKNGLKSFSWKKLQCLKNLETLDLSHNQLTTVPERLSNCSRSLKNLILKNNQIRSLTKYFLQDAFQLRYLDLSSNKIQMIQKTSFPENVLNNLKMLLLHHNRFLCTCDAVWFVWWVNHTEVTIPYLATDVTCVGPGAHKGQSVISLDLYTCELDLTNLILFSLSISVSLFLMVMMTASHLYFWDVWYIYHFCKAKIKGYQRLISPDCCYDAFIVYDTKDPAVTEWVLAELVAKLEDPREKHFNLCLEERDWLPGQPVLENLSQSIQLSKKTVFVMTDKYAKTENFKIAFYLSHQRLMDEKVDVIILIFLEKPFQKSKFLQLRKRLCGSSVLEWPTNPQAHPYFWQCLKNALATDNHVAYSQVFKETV
The test can be described thus: TLR7 inhibition reporter assay (HEK-Blue cells, SEAP reporter, gardiquimod stimulation). The note with it: HEK-Blue cells overexpressing human TLR7, SEAP reporter, gardiquimod 7.5 μM. The essentials:
as §1

Test [3] addresses T3, human TLR9 (Homo sapiens, UniProt Q9NR96).
T3 construct: host or cells: HEK-Blue cells
T3 sequence (Q9NR96 26-1032): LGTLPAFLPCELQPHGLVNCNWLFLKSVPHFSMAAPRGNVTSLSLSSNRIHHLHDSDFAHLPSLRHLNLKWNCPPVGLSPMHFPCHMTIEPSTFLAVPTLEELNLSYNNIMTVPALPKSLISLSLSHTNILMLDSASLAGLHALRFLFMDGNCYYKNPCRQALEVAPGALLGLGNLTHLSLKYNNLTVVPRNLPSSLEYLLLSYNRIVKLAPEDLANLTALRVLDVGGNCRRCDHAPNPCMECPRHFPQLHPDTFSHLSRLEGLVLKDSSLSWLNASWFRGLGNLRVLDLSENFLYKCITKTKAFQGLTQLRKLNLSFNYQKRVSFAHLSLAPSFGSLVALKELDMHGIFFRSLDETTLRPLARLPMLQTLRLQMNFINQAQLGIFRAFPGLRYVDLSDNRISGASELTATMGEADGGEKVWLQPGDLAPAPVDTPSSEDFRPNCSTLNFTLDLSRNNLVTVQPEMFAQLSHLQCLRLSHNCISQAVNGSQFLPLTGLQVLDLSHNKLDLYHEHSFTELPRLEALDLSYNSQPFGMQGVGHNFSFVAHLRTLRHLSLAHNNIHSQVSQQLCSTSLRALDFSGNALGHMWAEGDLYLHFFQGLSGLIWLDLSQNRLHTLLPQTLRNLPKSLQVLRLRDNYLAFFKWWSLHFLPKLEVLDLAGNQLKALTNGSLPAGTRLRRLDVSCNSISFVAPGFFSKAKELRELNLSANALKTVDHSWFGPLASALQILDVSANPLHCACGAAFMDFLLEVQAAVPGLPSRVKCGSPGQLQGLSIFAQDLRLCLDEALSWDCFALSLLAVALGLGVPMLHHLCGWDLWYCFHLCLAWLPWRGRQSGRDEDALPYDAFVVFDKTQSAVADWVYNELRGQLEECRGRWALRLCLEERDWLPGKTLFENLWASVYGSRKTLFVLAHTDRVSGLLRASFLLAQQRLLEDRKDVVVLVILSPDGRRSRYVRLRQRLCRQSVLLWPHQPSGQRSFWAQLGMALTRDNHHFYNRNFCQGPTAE
The test can be described thus: TLR9 inhibition reporter assay (HEK-Blue cells, SEAP reporter, ODN2006 stimulation). The following applies: HEK-Blue cells overexpressing human TLR9, SEAP reporter, ODN2006 5 nM. The method in brief: as §1

For the compound `CNC(=O)CN1CCc2cc(-c3n[nH]c(-c4cc(C)c5ncnn5c4)c3C(C)C)ccc2C1` [Example 273], the figures for the IC50 in test [1], in test [2] and in test [3] were 26.5 nM, 13.7 nM and 5550 nM, respectively.
With `Cc1cc(-c2[nH]nc(-c3nc4c(s3)CN(CC(=O)N(C)C)CC4)c2C(C)C)cn2ncnc12` [Example 275], the 50% inhibitory concentration (IC50) was 515 nM in test [1], 413 nM in test [2] and above 50000 nM in test [3].
In the case of `CC(=O)N1CCc2nc(-c3n[nH]c(-c4cc(C)c5ncnn5c4)c3C(C)C)sc2C1` [Example 276], the IC50 was above 3130 nM in test [1], 975 nM in test [2] and above 50000 nM in test [3].
Take `Cc1cc(-c2[nH]nc(-c3ccc4c(c3)CCNC4)c2C(C)C)cc(C)n1` [Example 278, 6-(5-(2,6-dimethylpyridin-4-yl)-4-isopropyl-1H-pyrazol-3-yl)-1,2,3,4-tetrahydroisoquinoline]: the figures for the IC50 in test [1], in test [2] and in test [3] were 0.33 nM, 1.43 nM and 10800 nM, respectively.
For the compound `Cc1cc(-c2[nH]nc(C3CCC(N(C)C(=O)CN(C)C)CC3)c2C(C)C)cn2ncnc12` (stereo not drawn) [Example 296, 2-(dimethylamino)-N-(4-(4-isopropyl-5-(8-methyl-[1,2,4]triazolo[1,5-a]pyridin-6-yl)-1H-pyrazol-3-yl)cyclohexyl)-N-methylacetamide], the 50% inhibitory concentration (IC50) in test [1] came to 0.73 nM; in test [2], 3.45 nM; in test [3], 33800 nM.
On the same counts, the results for `Cc1cc(-c2[nH]nc(C3CCC(N(C)CC(=O)N(C)C)CC3)c2C(C)C)cn2ncnc12` (stereo not drawn) [Example 298, 2-((4-(4-isopropyl-5-(8-methyl-[1,2,4]triazolo[1,5-a]pyridin-6-yl)-1H-pyrazol-3-yl)cyclohexyl)(methyl)amino)-N,N-dimethylacetamide] are 0.43 nM, 1.56 nM and 7410 nM.
As to `Cc1cc(-c2[nH]nc(C3CCC(N(C)C(=O)C4CN(C)C4)CC3)c2C(C)C)cn2ncnc12` (stereo not drawn) [Example 300, N-(4-(4-isopropyl-5-(8-methyl-[1,2,4]triazolo[1,5-a]pyridin-6-yl)-1H-pyrazol-3-yl)cyclohexyl)-N,1-dimethylazetidine-3-carboxamide], the IC50 in test [1] is 3.24 nM; in test [2], 10.7 nM; in test [3], 10100 nM.
As to `Cc1cc(-c2[nH]nc(-c3ccc(C4CCN(C(C)C)CC4)cc3)c2C(C)C)cn2ncnc12` [Example 307, 6-(4-isopropyl-3-(4-(1-isopropylpiperidin-4-yl)phenyl)-1H-pyrazol-5-yl)-8-methyl-[1,2,4]triazolo[1,5-a]pyridine], the figures for the IC50 in test [1], in test [2] and in test [3] were 9.33 nM, 118 nM and above 50000 nM, respectively.
`Cc1cc(-c2[nH]nc(-c3ccc(C4CCN(C)CC4)cc3)c2C(C)C)cn2ncnc12` [Example 309]: the IC50 in test [1] came to 4.19 nM; in test [2] it was 6.67 nM; in test [3], 14400 nM.
Take `CCN1CCC(c2ccc(-c3n[nH]c(-c4cc(C)c5ncnn5c4)c3C(C)C)cc2)CC1` [Example 310]: the concentration for half-maximal inhibition (IC50) was found to be 0.43 nM in test [1], 1.45 nM in test [2] and 19300 nM in test [3].
Taken in the same sequence, the figures for `Cc1cc(-c2[nH]nc(-c3ccc(C4CCN(C5COC5)CC4)cc3)c2C(C)C)cn2ncnc12` [Example 311] were above 3130 nM, 1400 nM and 18800 nM.
On the same counts, the results for `COc1cc(-c2[nH]nc(-c3ccc(C4CCN(CC5(C)COC5)CC4)cc3)c2C(C)C)cn2ncnc12` [Example 312] are 17.8 nM, 5.42 nM and above 50000 nM.
Turning to `COc1cc(-c2[nH]nc(-c3ccc(C4CCN(C5CCOCC5)CC4)cc3)c2C(C)C)cn2ncnc12` [Example 313], the half-maximal inhibitory concentration (IC50) in test [1] is 1.72 nM; in test [2] it was 3.71 nM; in test [3] it was above 50000 nM.
On the same counts, the results for `COc1cc(-c2[nH]nc(-c3ccc(C4CCN(C)CC4)cc3)c2C(C)C)cn2ncnc12` [Example 314] are 18.5 nM, 13.9 nM and above 50000 nM.
